“Also recorded” adds a separate entry of the source.
Experiments:
[1] = tested on: P. falciparum parasites; experiment: Cellular heme fractionation (heme speciation) assay; format: cell-based, Plasmodium falciparum
Description: At this juncture, it is noteworthy that a true hemozoin inhibitor causes a dose-dependent increase in “free” heme and a corresponding decrease in hemozoin. page 23: Table S2: Concentrations of fluorescent dyes used for confocal imaging of P. falciparum with respective excitation lasers and emission filter settings. Dye Concentration Excitation Laser Emission filter DRAQ 5 500 nM 580 nm 600-630 nm LysoTracker 100 nM 561 nm 575-630 nm Nile Red 100 nM 561 nm 575-630 nm ER-Tracker 100 nM 561 nm 575-630 nm MitoTracker 100 nM 561 nm 650-710 nm 1.3-NBD 50 nM 420 nm 500-550 nm 3.14-NBD 75 nM 420 nm 500-550 nm Heme Fractionation Assay […] The heme fractionation assay was performed according to the methods previously described.9 After the IC50 of the target compounds was determined, a counting plate was prepared by adding 10 μL of the isolated washed trophozoites to the corresponding wells of a flat-bottomed 96-well plate. […] The hemocytometer determined cell counts for these six samples were statistically compared to the cell counts determined by flow cytometry to test for agreement. 10 μL of cells from the counting plate were loaded onto a bright-lined hemocytometer, and five large squares were counted after 10 minutes of settling. The concentration of cells in each well of the plate was determined using equation 1: CH 1⁄4 […] […] Typically, 10,000 events were counted for each sample. […]

[2] = Metabolite identification in mouse liver microsomes; format: in vitro ADME; conditions: NADPH-dependent
Description: started by addition of NADPH (1 mM) as cofactor and shaken for 30 minutes at 37 °C. The
reactions were then quenched by adding 300 µL of ice-cold acetonitrile containing internal
standard (carbamazepine, 0.0236 µg/mL) and centrifuged. The supernatant was transferred to
a fresh 96-well plate and analysed by LC-MS/MS (Agilent Rapid Resolution HPLC, AB
SCIEX 4500 MS). The relative loss of parent compound over time was monitored and plots
(concentration vs. time) were prepared per compound to determine the first order rate constant
for compound depletion. This was in turn used to calculate half-life, in vitro intrinsic clearance
and in vivo hepatic extraction ratio.6
Metabolite Identification Studies
The test compound (10 µM) was incubated at 37 °C in a solution containing 1 mg/ml
microsomes (MLM, male mouse CD1, Lot No. 1510043, Xenotech), magnesium chloride (5
mM) and NADPH (1 mM) in sodium phosphate buffer (100 mM, pH 7.4) for 60 minutes while
shaking. The samples were then prepared by ice-cold acetonitrile precipitation, centrifuged,
and filtered for LC-MS/MS analysis.
Controls containing all the sample constituents (not incubated), and in which NADPH,
microsomes or the test compound were individually excluded were also prepared and handled
similarly to the test sample. Verapamil (10 µM) was incubated concomitantly as a positive
Fluorescence Live-cell Microscopy […]

Number of metabolites identified [2]: 4
SMILES: CCN(CCNc1cc2[nH]c(-c3cccc(C(F)(F)F)c3)nc2cn1)Cc1ccc(Cl)cc1O [Compound 14, 5-Chloro-2-((ethyl(2-((2-(3-(trifluoromethyl)phenyl)-1H-imidazo[4,5-c]pyridin-6-yl)amino)ethyl)amino)methyl)phenol]
Levels of hemozoin (Hz) Fe ([1]; between 0.5–2× IC50): significant decrease; also recorded: decreased
Levels of "free" heme Fe ([1]; increasing concentrations of compound): no statistically significant change; also recorded: no statistically significant effect

From paper PMC10111423, “Antimalarial Imidazopyridines Incorporating an Intramolecular Hydrogen Bonding Motif: Medicinal Chemistry and Mechanistic Studies” (ACS Infectious Diseases, 2023)
